Test results from patent publication US10786484B2, “Mono- or di-substituted indole derivatives as dengue viral replication inhibitors” (Janssen Pharmaceuticals, Inc., priority 2015, dated 2020).
pEC50: −log10 of the molar value.

How the values were obtained:
[1] = tested on: DENV-2 16681 strain labeled with eGFP; experiment: DENV-2 antiviral assay (eGFP fluorescence read-out in Vero cells); assay type: cell-based, Dengue virus; conditions: DENV-2 16681 eGFP, MOI 0.5, 3 days
Protocol: The antiviral activity of all the compounds of the invention was tested against the DENV-2 16681 strain which was labeled with enhanced green fluorescent protein (eGPF). The culture medium consists of minimal essential medium supplemented with 2% of heat-inactivated fetal calf serum, 0.04% gentamycin (50 mg/mL) and 2 mM of L-glutamine. Vero cells, obtained from ECACC, were suspended in culture medium and 25 μL was added to 384-well plates (2500 cells/well), which already contain the antiviral compounds. Typically, these plates contain a 5-fold serial dilution of 9 dilution steps of the test compound at 200 times the final concentration in 100% DMSO (200 nL). […] Finally, each plate contains wells which are assigned as virus controls (containing cells and virus in the absence of compound), cell controls (containing cells in the absence of virus and compound) and medium controls (containing medium in the absence of cells, virus and compounds). To the wells assigned as medium control, 25 μL of culture medium was added instead of Vero cells. Once the cells were added to the plates, the plates were incubated for 30 minutes at room temperature to allow the cells to distribute evenly within the wells. Next, the plates were incubated in a fully humidified incubator (37° C., 5% CO2) until the next day. Then, DENV-2 strain 16681, labeled with eGFP, was added at a multiplicity of infection (MOI) of 0.5. Therefore, 15 μL of virus suspension was added to all the wells containing test compound and to the wells assigned as virus control. In parallel, 15 μL of culture medium was added to the medium and cell controls. Next, the plates were incubated for 3 days in a fully humidified incubator (37° C., 5% CO2). At the day of the read out, the eGFP fluorescence was measured using an automated fluorescence microscope at 488 nm (blue laser). Using an in-house LIMS system, inhibition dose response curves for each compound were calculated and the half maximal effective concentration (EC50) was determined. Therefore, the percent inhibition (I) for every test concentration is calculated using the following formula: I=100*([…])/(SVC−SCC); ST, SCC and SVC are the amount of eGFP signal in the test compound, cell control and virus control wells, respectively. The EC50 represents the concentration of a compound at which the virus replication is inhibited with 50%, as measured by a 50% reduction of the eGFP fluorescent intensity compared to the virus control. The EC50 is calculated using linear interpolation (Table 1).

[2] = in vitro; conditions: African green monkey
[3] = tested on: DENV-1 strain TC974#666; experiment: Tetravalent RT-qPCR assay Protocol A, serotype 1; assay type: cell-based; conditions: Dengue virus, DENV1, 72 h; RT-qPCR serotype 1 TC974#666, Vero cells, day 3
Protocol: (§1) The antiviral activity of the compounds of the invention was tested against DENV-1 strain TC974#666 (NCPV), DENV-2 strain 16681, DENV-3 strain H87 (NCPV) and DENV-4 strains H241 (NCPV) and EDEN (SG/06K2270DK1/2005; GenBank accession number QG398256) in a RT-qPCR assay. Therefore, Vero cells were infected with either DENV-1, or -2, or -3, or -4 in the presence or absence of test compounds. At day 3 post-infection, the cells were lysed and cell lysates were used to prepare cDNA of both a viral target (the 3′UTR of DENV; Table 2) and a cellular reference gene (β-actin, Table 2). Subsequently, a duplex real time PCR was performed on a Lightcycler480 instrument. The generated Cp value is inversely proportional to the amount of RNA expression of these targets. Inhibition of DENV replication by a test compound results in a shift of Cp's for the 3′UTR gene. On the other hand, if a test compound is toxic to the cells, a similar effect on β-actin expression will be observed. The comparative ΔΔCp method is used to calculate EC50, which is based on the relative gene expression of the target gene (3′UTR) normalized with the cellular housekeeping gene (β-actin). In addition, CC50 values are determined based on the Cp values acquired for the housekeeping gene β-actin.
(§2) The culture medium consisted of minimal essential medium supplemented with 2% of heat-inactivated fetal calf serum, 0.04% gentamycin (50 mg/mL) and 2 mM of L-glutamine. Vero cells, obtained from ECACC, were suspended in culture medium and 75 μL/well was added in 96-well plates (10000 cells/well), which already contain the antiviral compounds. […] In addition, each plate contains wells which are assigned as virus controls (containing cells and virus in the absence of compound) and cell controls (containing cells in the absence of virus and compound). Once the cells were added in the plates, the plates were incubated in a fully humidified incubator (37° C., 5% CO2) until the next day. Dengue viruses serotype-1, 2, 3 and 4 were diluted in order to obtain a Cp of ˜22-24 in the assay. Therefore, 25 μL of virus suspension, was added to all the wells containing test compound and to the wells assigned as virus control. In parallel, 25 μL of culture medium was added to the cell controls. Next, the plates were incubated for 3 days in a fully humidified incubator (37° C., 5% CO2). After 3 days, the supernatant was removed from the wells and the cells were washed twice with ice-cold PBS (−100 μL). The cell pellets within the 96-well plates were stored at −80° C. for at least 1 day. Next, RNA was extracted using the Cells-to-CT™ lysis kit, according to the manufacturer's guideline (Life Technologies). The cell lysates can be stored at −80° C. or immediately used in the reverse transcription step.
(§3) In preparation of the reverse transcription step, mix A (table 3A) was prepared and 7.57 μL/well was dispensed in a 96-well plate. After addition of 5 μL of the cell lysates, a five minute denaturation step at 75° C. was performed (table 3B). Afterwards, 7.43 μL of mix B was added (table 3C) and the reverse transcription step was initiated (table 3D) to generate cDNA.
(§4) Finally, a RT-qPCR mix was prepared, mix C (table 4A), and 22.02 μL/well was dispensed in 96-well LightCycler qPCR plates to which 3 μL of cDNA was added and the qPCR was performed according to the conditions in table 4B on a LightCycler 480.
(§5) Using the LightCycler software and an in-house LIMS system, dose response curves for each compound were calculated and the half maximal effective concentration (EC50) and the half maximal cytotoxic concentration (CC50) were determined (Tables 5-8).

[4] = tested on: DENV-2 strain 16681; experiment: Tetravalent RT-qPCR assay Protocol A, serotype 2; assay type: cell-based; conditions: Dengue virus, DENV2, 72 h; RT-qPCR serotype 2 16681, Vero cells, day 3
Protocol: as §1, §2, §3, §4, §5

[5] = tested on: DENV-3 strain H87; experiment: Tetravalent RT-qPCR assay Protocol A, serotype 3; assay type: cell-based; conditions: Dengue virus, DENV3, 72 h; RT-qPCR serotype 3 H87, Vero cells, day 3
Protocol: as §1, §2, §3, §4, §5

[6] = tested on: DENV-4 strain H241; experiment: Tetravalent RT-qPCR assay Protocol A, serotype 4 H241; assay type: cell-based; conditions: Dengue virus, DENV4, 72 h; RT-qPCR serotype 4 H241, Vero cells, day 3
Protocol: as §1, §2, §3, §4, §5

[7] = in vitro; assay type: cell-based; conditions: African green monkey, CC50
Protocol: as §1, §2, §5

[8] = tested on: Vero cells; conditions: African green monkey
[9] = Dengue virus, DENV2, Vero, 72 h

Compound | pEC50 [1, 9] | CC50 [2] | pEC50 [1] | pEC50 [3] | pEC50 [4] | pEC50 [5] | pEC50 [6] | CC50 at 3 days [7] | CC50 [8]
COc1cc(NC(C(=O)c2c[nH]c3c(C)c(Cl)ccc23)c2ccc(F)cc2OCCO)cc(S(C)(=O)=O)c1 (racemic) [Compound 4, 1-(6-chloro-7-methyl-1H-indol-3-yl)-2-(4-fluoro-2-(2-hydroxyethoxy)phenyl)-2-((3-methoxy-5-(methylsulfonyl)phenyl)amino)ethanone] | 9.43 | 3500 nM |  |  |  |  |  |  | 
COc1cc(NC(C(=O)c2c[nH]c3c(C)cc(OC(F)(F)F)cc23)c2ccc(F)cc2OCCO)cc(S(C)(=O)=O)c1 (single isomer, unassigned) [Compound 12A, 2-(4-fluoro-2-(2-hydroxyethoxy)phenyl)-2-((3-methoxy-5-(methylsulfonyl)phenyl)amino)-1-(7-methyl-5-(trifluoromethoxy)-1H-indol-3-yl)ethanone] |  |  | 10.00 | 9.70 | 10.12 | 8.49 | 7.85 | > 1000 nM | 2200 nM
COc1cc(NC(C(=O)c2c[nH]c3c(C)c(F)ccc23)c2ccc(F)cc2OCCO)cc(S(C)(=O)=O)c1 (racemic) [Compound 3, 2-(4-fluoro-2-(2-hydroxyethoxy)phenyl)-1-(6-fluoro-7-methyl-1H-indol-3-yl)-2-((3-methoxy-5-(methylsulfonyl)phenyl)amino)ethanone] | 8.92 | 5100 nM |  |  |  |  |  |  | 
COc1cc(NC(C(=O)c2c[nH]c3cc(F)c(F)cc23)c2ccc(F)cc2OCCO)cc(S(C)(=O)=O)c1 (racemic) [Compound 5, 1-(5,6-difluoro-1H-indol-3-yl)-2-(4-fluoro-2-(2-hydroxyethoxy)phenyl)-2-((3-methoxy-5-(methylsulfonyl)phenyl)-amino)ethanone] | 9.00 | 6900 nM |  |  |  |  |  |  | 
COc1cc(NC(C(=O)c2c[nH]c3c(C)cc(OC(F)(F)F)cc23)c2ccc(F)cc2OCCO)cc(S(C)(=O)=O)c1 (racemic) [Compound 12, 2-(4-fluoro-2-(2-hydroxyethoxy)phenyl)-2-((3-methoxy-5-(methylsulfonyl)phenyl)amino)-1-(7-methyl-5-(trifluoromethoxy)-1H-indol-3-yl)ethanone] | 9.66 | 3700 nM |  |  |  |  |  |  | 
COc1cc(NC(C(=O)c2c[nH]c3c(F)cc(C)cc23)c2ccc(F)cc2OCCO)cc(S(C)(=O)=O)c1 (racemic) [Compound 8, 2-(4-fluoro-2-(2-hydroxyethoxy)phenyl)-1-(7-fluoro-5-methyl-1H-indol-3-yl)-2-((3-methoxy-5-(methylsulfonyl)phenyl)amino)ethanone] | 8.64 | 6900 nM |  |  |  |  |  |  | 
COc1cc(NC(C(=O)c2c[nH]c3cc(F)c(C)cc23)c2ccc(F)cc2OCCO)cc(S(C)(=O)=O)c1 (single isomer, unassigned) [Compound 7A, 2-(4-fluoro-2-(2-hydroxyethoxy)phenyl)-1-(6-fluoro-5-methyl-1H-indol-3-yl)-2-((3-methoxy-5-(methylsulfonyl)phenyl)amino)ethanone] |  |  | 9.27 | 8.89 | 9.11 | 7.70 | 6.92 | > 2400 nM | 3100 nM
COc1cc(NC(C(=O)c2c[nH]c3c(C)cc(Cl)cc23)c2ccc(F)cc2OCCO)cc(S(C)(=O)=O)c1 (single isomer, unassigned) [Compound 9A, 1-(5-chloro-7-methyl-1H-indol-3-yl)-2-(4-fluoro-2-(2-hydroxyethoxy)phenyl)-2-((3-methoxy-5-(methylsulfonyl)phenyl)amino)ethanone] |  |  | 9.41 | 8.85 | 9.21 | 7.80 | 6.96 | > 2500 nM | 3200 nM
COc1cc(NC(C(=O)c2c[nH]c3cc(OC)c(OC(F)(F)F)cc23)c2ccc(F)cc2OCCO)cc(S(C)(=O)=O)c1 (racemic) [Compound 11, 2-(4-fluoro-2-(2-hydroxyethoxy)phenyl)-2-((3-methoxy-5-(methyl-sulfonyl)phenyl)amino)-1-(6-methoxy-5-(trifluoromethoxy)-1H-indol-3-yl)ethanone] | 9.32 | 9000 nM |  |  |  |  |  |  | 
COc1cc(NC(C(=O)c2c[nH]c3cc(OC)c(C)cc23)c2ccc(F)cc2OCCO)cc(S(C)(=O)=O)c1 (racemic) [Compound 6, 2-(4-fluoro-2-(2-hydroxyethoxy)phenyl)-2-((3-methoxy-5-(methylsulfonyl)phenyl)amino)-1-(6-methoxy-5-methyl-1H-indol-3-yl)ethanone] | 8.85 | 5800 nM |  |  |  |  |  |  | 
COc1cc(NC(C(=O)c2c[nH]c3cc(F)ccc23)c2ccc(F)cc2OCCO)cc(S(C)(=O)=O)c1 (racemic) [Compound 1, 1-(6-fluoro-1H-indol-3-yl)-2-(4-fluoro-2-(2-hydroxyethoxy)phenyl)-2-((3-methoxy-5-(methylsulfonyl)phenyl)amino)ethanone] | 8.74 | 7600 nM |  |  |  |  |  |  | 
COc1cc(NC(C(=O)c2c[nH]c3cc(Cl)ccc23)c2ccc(F)cc2OCCO)cc(S(C)(=O)=O)c1 (racemic) [Compound 2, 1-(6-chloro-1H-indol-3-yl)-2-(4-fluoro-2-(2-hydroxyethoxy)phenyl)-2-((3-methoxy-5-(methylsulfonyl)phenyl)amino)-ethanone] | 9.09 | 6200 nM |  |  |  |  |  |  | 
